Measured values taken from ChEMBL document CHEMBL1142904, “Modulating effects of a novel skin-lightening agent, alpha-lipoic acid derivative, on melanin production by the formation of DOPA conjugate products” (Bioorg Med Chem, 2007).
Active and inactive are the calls of the source. The rule behind the calls is not given here.

T1: Tyrosinase (Agaricus bisporus) (UniProt O42713)
T1 sequence (whole entry): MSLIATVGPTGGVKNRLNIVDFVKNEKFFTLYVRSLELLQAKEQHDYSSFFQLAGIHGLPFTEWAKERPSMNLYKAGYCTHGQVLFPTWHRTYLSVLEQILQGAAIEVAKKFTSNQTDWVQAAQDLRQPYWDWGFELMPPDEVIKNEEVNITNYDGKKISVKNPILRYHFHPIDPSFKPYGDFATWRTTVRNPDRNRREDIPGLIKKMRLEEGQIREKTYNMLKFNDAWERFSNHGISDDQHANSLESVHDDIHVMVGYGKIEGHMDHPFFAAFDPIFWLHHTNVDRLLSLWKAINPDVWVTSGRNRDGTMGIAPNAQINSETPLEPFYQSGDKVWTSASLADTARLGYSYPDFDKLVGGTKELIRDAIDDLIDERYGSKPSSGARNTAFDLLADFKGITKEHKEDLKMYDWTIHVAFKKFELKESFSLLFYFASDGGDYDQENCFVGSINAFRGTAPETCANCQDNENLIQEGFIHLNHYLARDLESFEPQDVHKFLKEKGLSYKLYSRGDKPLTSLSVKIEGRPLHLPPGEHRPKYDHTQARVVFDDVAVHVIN

T2: Tyrosinase (Agaricus bisporus, UniProt O42713)
T2 sequence (O42713 whole entry): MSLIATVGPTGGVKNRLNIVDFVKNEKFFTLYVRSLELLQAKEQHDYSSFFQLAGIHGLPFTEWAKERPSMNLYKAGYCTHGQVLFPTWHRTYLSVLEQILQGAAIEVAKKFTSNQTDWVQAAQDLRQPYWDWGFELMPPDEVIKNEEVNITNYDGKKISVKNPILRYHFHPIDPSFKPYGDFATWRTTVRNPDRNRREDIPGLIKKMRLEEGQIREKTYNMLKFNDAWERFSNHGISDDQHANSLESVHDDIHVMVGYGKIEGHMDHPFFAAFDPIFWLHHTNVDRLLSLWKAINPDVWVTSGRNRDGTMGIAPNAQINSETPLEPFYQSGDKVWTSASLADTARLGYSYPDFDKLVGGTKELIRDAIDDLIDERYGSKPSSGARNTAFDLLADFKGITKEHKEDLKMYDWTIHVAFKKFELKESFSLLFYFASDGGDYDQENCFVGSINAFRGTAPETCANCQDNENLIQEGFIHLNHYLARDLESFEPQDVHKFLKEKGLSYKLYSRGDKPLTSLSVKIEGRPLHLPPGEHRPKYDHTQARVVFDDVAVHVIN


How the values were obtained:
B16 = experiment: Inhibition of melanin synthesis in mouse B16 cells at 75 uM after 3 days; format: functional; settings: B16, 72 h
[1] = biological target: T1, Tyrosinase (Agaricus bisporus); experiment: Inhibition of mushroom tyrosinase catalyzed oxidation of L-DOPA assessed as DOPAchrome formation at 120 uM
Tyrosinase = biological target: T2, Tyrosinase; experiment: Inhibition of mushroom tyrosinase
[2] = biological target: T1, Tyrosinase (Agaricus bisporus); settings: 4 uM
Description: Inhibition of mushroom tyrosinase at 4 uM

[3] = substrate: N[C@@H](Cc1ccc(O)c(O)c1)C(=O)O; experiment: Activity of mushroom tyrosinase; settings: Agaricus bisporus
[4] = substrate: O=C(CCCCC1CCS[Zn]S1)NC(Cc1c[nH]cn1)C(=O)O; settings: Agaricus bisporus; 1.3 uM
Description: Activity of mushroom tyrosinase at 1.3 uM

Molecule	inhibition at 75 µM (B16) [%]	Activity [1]	IC50 (Tyrosinase) [nM]	inhibition [2] [%]	Km [3] [µM]	Km [4] [µM]
OC[C@H]1O[C@H](Oc2ccc(O)cc2)[C@H](O)[C@@H](O)[C@@H]1O	38.3					
O=C(O)CCCC[C@@H](S)CCS [DIHYDROLIPOIC ACID]	36.3	Active				
O=C(CCCCC1CC[S][Zn][S]1)NC(Cc1c[nH]cn1)C(=O)O (centres undefined) [SODIUM ZINC DIHYDROLIPOYLHISTIDINATE]	41.5	Active	1300	82.9		
Tyrosinase (Agaricus bisporus), O42713 (protein) MSLIATVGPTGGVKNRLNIVDFVKNEKFFTLYVRSLELLQAKEQHDYSSFFQLAGIHGLPFTEWAKERPSMNLYKAGYCTHGQVLFPTWHRTYLSVLEQILQGAAIEVAKKFTSNQTDWVQAAQDLRQPYWDWGFELMPPDEVIKNEEVNITNYDGKKISVKNPILRYHFHPIDPSFKPYGDFATWRTTVRNPDRNRREDIPGLIKKMRLEEGQIREKTYNMLKFNDAWERFSNHGISDDQHANSLESVHDDIHVMVGYGKIEGHMDHPFFAAFDPIFWLHHTNVDRLLSLWKAINPDVWVTSGRNRDGTMGIAPNAQINSETPLEPFYQSGDKVWTSASLADTARLGYSYPDFDKLVGGTKELIRDAIDDLIDERYGSKPSSGARNTAFDLLADFKGITKEHKEDLKMYDWTIHVAFKKFELKESFSLLFYFASDGGDYDQENCFVGSINAFRGTAPETCANCQDNENLIQEGFIHLNHYLARDLESFEPQDVHKFLKEKGLSYKLYSRGDKPLTSLSVKIEGRPLHLPPGEHRPKYDHTQARVVFDDVAVHVIN					860	4.1
